From publication PMC9143043, “Synthesis and Biological Evaluation of 5′-O-Fatty Acyl Ester Derivatives of 3′-Fluoro-2′,3′-dideoxythymidine as Potential Anti-HIV Microbicides” (Molecules, 2022) come the findings set out here.

Molecules are shown by their SMILES. Like-named read-outs stand apart in the source and are kept apart here.

Format in all cases: cell-based
Data set [1] relates to HIV-1 strain IIIB (lymphocytotropic strain). The experiment in a line: Single-round infection assay, cell-free X4 virus (lymphocytotropic strain). The following applies: Human immunodeficiency virus 1, IIIB. On the procedure: (§1) Anti-HIV activities of the compounds were evaluated according to the previously reported procedure. In summary, the HeLa (Human cervical carcinoma: ATCC CCL-2.1) cell line was used to measure the inactivation of both the cell-free virus preparations and virus-infected cell preparations. The cells were plated in culture plates 24 h prior to each experiment. Cell-free viral preparations of HIV-1 strains IIIB (lymphocytotropic strain) and BaL (monocytotropic strain) were used for the cell-free assay. For the cell-associated assay, the SulT1 cells were infected with IIIB virus 5 days prior to the experiment. Cell-free virus and virus-infected cells were mixed with different compounds and diluted to make different concentrations. The mixture was further diluted with the buffer and added to the HeLa cells.

Data set [2] deals with HIV-1 strain BaL (monocytotropic strain). The experiment in a line: Single-round infection assay, cell-free R5 virus (monocytotropic strain). To be noted: Human immunodeficiency virus 1, BAL. How it is done:
as §1

The test system of data set [3] is HIV-1. The experiment in a line: Anti-HIV activity overall (cell-free and cell-associated assays) and antiviral index.
From the text: Table 2, Table 3 and Table 4 illustrate the anti-HIV-1 activities against the cell-free, cell-associated, and multidrug-resistant virus and sperm inhibiting properties of the selected compounds. In summary, the anti-HIV activity of 5′-substituted derivatives of FLT and AZT (5–18) was dependent on the nature of the 5′-substituent. […] None of the other esters were active against cell-associated virus. […] The difference in the activity of fatty acyl derivatives of FLT compared to each other and FLT may be due to their differences in the rate of uptake and intracellular hydrolysis.
By design, the ester moiety in the conjugates needs to be hydrolyzed to render parent nucleosides and fatty acids to produce anti-HIV activity. The anti-HIV activities of 5′-O-ether substituted FLT and AZT (3 and 4, Scheme 2) with a stable tetradecanyl (myristyl) group were compared with hydrolyzable 5′-O-ester substituted FLT and AZT (6 and 7).
as §1

In data set [4] the test system is cell-associated HIV-1 IIIB (infected SulT1 cells). As to the kind of experiment: Cell-associated transmission assay (IIIB). To be noted: for EC50: Human immunodeficiency virus 1, IIIB. On the procedure: as §1
The nature of data set [5]: Cytotoxicity assay (MTS). To be noted: human, HeLa cells (ATCC CCL-2.1).
[6] abbreviates: read-out: (X4) EC50, Table 2, single-round infection assay.
Where [7] appears, read: read-out: (R5) EC50, Table 2, single-round infection assay.
Setting [8] is: read-out: (CA) EC50, Table 2, cell-associated transmission assay (IIIB).
Where [9] appears, read: Table 2, MTS, 50% effective concentration.
The mark [10] stands for this setting: read-out: (CA) EC50, Table 3, cell-to-cell transmission assay (IIIB).
Setting [11] is: Table 3, conjugates vs physical mixtures.
Where [12] appears, read: read-out: (X4) EC50, Table 3, viral entry inhibition assay.
Where [13] appears, read: read-out: (R5) EC50, Table 3, viral entry inhibition assay.

As to `CCCCCCCCCCCCC(OC)C(=O)OC[C@H]1O[C@@H](n2cc(C)c(=O)[nH]c2=O)C[C@@H]1F` (mixture of isomers) [Compound 13, (±)-3′-Fluoro-2′,3′-dideoxy-5′-O-(2-methoxyteradecanoyl)thymidine], the 50% effective concentration (EC50) – broadly, the concentration that produces a half-maximal response – in data set [1] (setting [6]) was 1 µM; in data set [2] (setting [7]), 0.2 µM; in data set [4] (setting [8]), above 206 µM; in data set [5] (setting [9]) it was above 206 µM. The “anti-HIV activity (in words)” value in data set [3] is recorded as “significant anti-HIV activity at noncytotoxic concentrations”.

Take `CCCCCCCCCCCCC(OC)C(=O)OC[C@H]1O[C@@H](n2cc(C)c(=O)[nH]c2=O)C[C@@H]1N=[N+]=[N-]` (mixture of isomers) [Compound 14, (±)-3′-Azido-2′,3′-dideoxy-5′-O-(2-methoxyteradecanoyl)thymidine]: the 50% effective concentration (EC50) in data set [1] (setting [6]) was 9.7 µM; in data set [2] (setting [7]) it was 6.7 µM; in data set [4] (setting [8]), above 197 µM; in data set [5] (setting [9]), above 197 µM.

Consider `Cc1cn([C@H]2C[C@H](N=[N+]=[N-])[C@@H](CO)O2)c(=O)[nH]c1=O` [AZT, 3′-azido-2′,3′-dideoxythymidine, reference compound], for which the EC50 in data set [1] (Table 2, single-round infection assay, read-out: (X4) EC50) is 10.9 µM; in data set [1] (Table 3, viral entry inhibition assay, read-out: (X4) EC50), 10.9 µM; in data set [2] (Table 2, single-round infection assay, read-out: (R5) EC50), 14.2 µM; in data set [2] (Table 3, viral entry inhibition assay, read-out: (R5) EC50), 14.2 µM; in data set [4] (setting [8]), above 375 µM; in data set [4] (setting [10]), above 374 µM. For the same compound, the 50% effective concentration (EC50) is above 375 µM in data set [5] (setting [9]) and above 374 µM in data set [5] (setting [11]). In data set [4], the “activity against cell-associated virus (in words)” value is “only inconsistently and moderately active”.

On to `CCCCCCCCCCCCCCOCC1OC(n2cc(C)c(=O)[nH]c2=O)CC1F` (centres unmarked) [Compound 3, 3′-Fluoro-2′,3′-dideoxy-5′-O-(tetradecanyl)thymidine], for which the EC50 is 180 µM in data set [1] (setting [6]), 176 µM in data set [2] (setting [7]), above 227 µM in data set [4] (setting [8]) and 179 µM in data set [5] (setting [9]). Further, the “anti-HIV activity (in words)” value in data set [3] was “significantly less potent than the corresponding ester derivatives”.

For the compound `CCCCCCCCCCCCCCOCC1OC(n2cc(C)c(=O)[nH]c2=O)CC1N=[N+]=[N-]` (centres unmarked) [Compound 4, 3′-Azido-2′,3′-dideoxy-5′-O-(tetradecanyl)thymidine], the EC50 in data set [1] (setting [6]) is 125 µM; in data set [2] (setting [7]), 27.6 µM; in data set [4] (setting [8]), above 216 µM; in data set [5] (setting [9]) it was 205 µM. Further, in data set [3], the “anti-HIV activity (in words)” value is given as “significantly less potent than the corresponding ester derivatives”.

Consider `CCCCCCCCCCCCCC(=O)OC[C@H]1O[C@@H](n2cc(C)c(=O)[nH]c2=O)C[C@@H]1N=[N+]=[N-]` [Compound 7], for which the EC50 in data set [1] (setting [6]) was 3.1 µM; in data set [1] (setting [12]) it was 3.1 µM; in data set [2] (setting [7]) it was 5 µM; in data set [2] (setting [13]) it was 5 µM; in data set [4] (setting [8]), above 629 µM; in data set [4] (setting [10]) it was above 629 µM. Moreover, the EC50 in data set [5] (setting [9]) and in data set [5] (setting [11]) was above 629 µM in each case.

For `CCSCCCCCCCCCCCC(=O)OC[C@H]1O[C@@H](n2cc(C)c(=O)[nH]c2=O)C[C@@H]1N=[N+]=[N-]` [Compound 9], the EC50 was 7.7 µM in data set [1] (setting [6]), 5.2 µM in data set [2] (setting [7]), 90.7 µM in data set [4] (setting [8]) and above 101 µM in data set [5] (setting [9]).

`CCCCCCCCCCCCCCC(=O)OC[C@H]1O[C@@H](n2cc(C)c(=O)[nH]c2=O)C[C@@H]1N=[N+]=[N-]` [Compound 10]: the EC50 in data set [1] (setting [6]) is 17.9 µM; in data set [2] (setting [7]), 4.5 µM; in data set [4] (setting [8]), above 611 µM; in data set [5] (setting [9]) it was above 611 µM.

As for `Cc1cn([C@H]2C[C@H](F)[C@@H](COC(=O)CCCCCCCCCCCBr)O2)c(=O)[nH]c1=O` [Compound 11], the EC50 in data set [1] (setting [6]) is 1.8 µM; in data set [2] (setting [7]), below 0.2 µM; in data set [4] (setting [8]), above 198 µM; in data set [5] (setting [9]), above 198 µM.

In the case of `Cc1cn([C@H]2C[C@H](N=[N+]=[N-])[C@@H](COC(=O)CCCCCCCCCCCBr)O2)c(=O)[nH]c1=O` [Compound 12], the EC50 was 14.8 µM in data set [1] (setting [6]); 14.8 µM in data set [1] (setting [12]); 4.6 µM in data set [2] (setting [7]); 4.6 µM in data set [2] (setting [13]); above 190 µM in data set [4] (setting [8]); above 190 µM in data set [4] (setting [10]). Besides, the EC50 in data set [5] (setting [9]) and in data set [5] (setting [11]) was above 190 µM each time.

As for `CCCCCSCCCCCCCC(=O)OC[C@H]1O[C@@H](n2cc(C)c(=O)[nH]c2=O)C[C@@H]1F` [Compound 15], the EC50 in data set [1] (setting [6]) was 11.4 µM; in data set [2] (setting [7]), 4.4 µM; in data set [4] (setting [8]), above 64 µM; in data set [5] (setting [9]), above 64 µM.

In the case of `CCCCCSCCCCCCCC(=O)OC[C@H]1O[C@@H](n2cc(C)c(=O)[nH]c2=O)C[C@@H]1N=[N+]=[N-]` [Compound 16], the EC50 is 9.3 µM in data set [1] (setting [6]), 12.9 µM in data set [2] (setting [7]), above 202 µM in data set [4] (setting [8]) and above 202 µM in data set [5] (setting [9]).

Regarding `CCCCCCCCCCOCCC(=O)OC[C@H]1O[C@@H](n2cc(C)c(=O)[nH]c2=O)C[C@@H]1N=[N+]=[N-]` [Compound 17], the EC50 in data set [1] (setting [6]) is 6.7 µM; in data set [2] (setting [7]) it was 2.1 µM; in data set [4] (setting [8]), above 209 µM; in data set [5] (setting [9]) it was above 209 µM.

Take `CCCCCOCCCCCCCC(=O)OC[C@H]1O[C@@H](n2cc(C)c(=O)[nH]c2=O)C[C@@H]1N=[N+]=[N-]` [Compound 18]: the EC50 in data set [1] (setting [6]) was 4.8 µM; in data set [2] (setting [7]), 6.1 µM; in data set [4] (setting [8]), above 209 µM; in data set [5] (setting [9]), above 209 µM.

For the compound `Cc1cn(C2CC(F)C(COC(=O)CCCCCCCCCCCN)O2)c(=O)[nH]c1=O` (centres unmarked) [Compound 22, 3′-Fluoro-2′,3′-dideoxy-5′-O-(12-aminododecanoyl)thymidine], the 50% effective concentration (EC50) was 3.4 µM in data set [1] (setting [6]), 1.6 µM in data set [2] (setting [7]), above 227 µM in data set [4] (setting [8]) and above 226 µM in data set [5] (setting [9]). Moreover, in data set [3], the “anti-HIV activity (in words)” value is recorded as “comparable to other fatty acyl derivatives of FLT”.
